Data published in patent US12679860B2, “C-terminal HSP90 inhibitors” (UNIVERSITY OF KANSAS, priority 2012, dated 2026).
Read-outs that look alike come from different tables or passages of the source.

Tests used:
[1] = tested on: embryonic dorsal root ganglion (DRG) sensory neuron cultures; assay: Glucotoxicity assay: cell viability (calcein AM) of DRG sensory neurons under glucose-induced toxicity; assay type: cell-based, Sprague Dawley rat; details: for EC50: 0.1-1000 nM novologue overnight, then 4 hrs of hyperglycemia, mean±SEM (n=3-8), read-out: EC50 for protection against glucose-induced toxicity; for viability at 1 µM: Table 1, 1 μM of each novologue + 20 mM excess glucose, glucose + DMSO was 54% ± 2
Protocol: DRG sensory neurons were incubated in the absence or presence of 0.1-1000 nM of the indicated novologue overnight and then subjected to 4 hrs of hyperglycemia.
The ganglia were sedimented at 1,000×g for 5 min, resuspended in growth media [phenol red free Neurobasal medium (Gibco, Grand Island, NY) containing 25 mM glucose, 1X B-27 additive, 50 ng/ml NGF (Harlan Bioscience, Indianapolis, IN), 4 mM glutamine, 100 U/mL penicillin and 100 μg/mL streptomycin] and triturated with a fire-polished glass pipette. The cells were cultured on collagen-coated (0.1 mg/mL collagen followed by overnight air drying in a laminar flow hood) black-walled 96-well plates (Corning Incorporated Corning, NY) at a seeding density of 2-3×10^4 cells per well. DRG neurons were re-fed the next day with fresh growth media containing 40 μM fluorodeoxyuridine and 10 μM cytosine β-D-arabinoside (both from Sigma Aldrich, St. Louis, MO) for 2 days to remove proliferating cells. Experiments were performed on DRG neurons on the third day in culture after placing the cells in fresh growth medium. […]
DRG neurons were incubated overnight with the test compounds in the presence of Neurobasal medium, 50 ng/ml NGF and antibiotics only. In order to monitor the efficiency of the compounds in protecting DRG neurons against glucotoxicity, Calcein AM (Invitrogen, Carlsbad, CA) was utilized to measure cell viability. Hydrolysis of calcein AM to a fluorescent product can only occur in live cells. Excess glucose was added to the cultures for 4 hrs and cell viability was measured by incubating the cells with 2 μM calcein AM for 30 min in the dark at 37° C. Fluorescence was then measured using a plate reader with excitation and emission wavelengths set to 485 nm and 520 nm, respectively. The arbitrary fluorescence readings were normalized to the total amount of protein from each respective well of the neuronal cultures. The protein concentrations in each well were determined using the DC protein assay (Bio-Rad). Significant differences in the efficacy of the novologues for increasing cell viability were determined using a Kruskal-Wallis non-parametric ANOVA and Dunn's post-test.

Hsp70 = assay: Immunoblot analysis of induction of Hsp70 in DRG sensory neurons; assay type: cell-based, Sprague Dawley rat; details: 24 hours incubation, then 4 hours of glucotoxic stress; Hsp70 normalized to β-actin
Protocol: DRG sensory neurons were incubated in the presence of DMSO (Cntrl) or 10-1000 nM of the indicated novologue overnight and then subjected to 4 hrs of hyperglycemia. The neurons were harvested and Hsp70 and β-actin levels were determined by immunoblot analysis. Band intensity was quantified using Image J, Hsp70 expression was normalized to the level of β-actin.
Since it was previously shown that the cytoprotective activity manifested by KU-32 requires Hsp70, the ability of 11b and 11n to induce Hsp70 was determined relative to KU-32. Increasing concentrations of KU-32, 11n, and 11b were incubated with DRG sensory neurons for 24 hours before the cells were subjected to 4 hours of glucotoxic stress. Hsp70 levels were examined by performing immunoblot analysis with the cellular lysates (FIG. 5). 11n and 11b induced Hsp70 levels at similar concentrations (10 nM) as those needed for neuroprotection.
DRG from embryonic day 15-18 Sprague Dawley rat pups were harvested into Leibovitz's L15 medium (L15) and dissociated with 0.25% trypsin for 30 min at 37° C. […]

[2] = tested on: myelinated cultures of sensory neurons prepared from Hsp70.1 and 70.3 double knockout mice; details: sensory neurons from Hsp70.1 and 70.3 double knockout mice; cited from earlier work
diabetic mice = details: weekly treatment, cited from earlier work

| SMILES | protection against glucose-induced toxicity (in words) ([1]; 1 μM novologue + 20 mM excess glucose) | EC50 ([1]; Rattus norvegicus, Neuron) [nM] | viability at 1 µM ([1]; Rattus norvegicus, Neuron) [%] | concentration at which Hsp70 levels were induced (Hsp70) [nM] | EC50 [1] [nM] | prevention of neuregulin-induced demyelination [2] | reversal of clinical indices of DPN (diabetic mice; diabetic Hsp70 knockout mice) | sensory and motor nerve function (diabetic mice; diabetic wild type mice) |
| --- | --- | --- | --- | --- | --- | --- | --- | --- |
| CO[C@@H]1[C@@H](O)[C@@H](O)C(Oc2ccc(CCNC(C)=O)c(-c3cccc(F)c3)c2)OC1(C)C (stereo partly drawn) [11b, N-(2-(5-(((3R,4S,5R)-3,4-dihydroxy-5-methoxy-6,6-dimethyltetrahydro-2H-pyran-2-yl)oxy)-3′-fluoro-[1,1′-biphenyl]-2-yl)ethyl)acetamide] | showed significant protection against glucotoxicity | 13 ± 3.6 | 95 | 10 |  |  |  |  |
| CO[C@@H]1[C@@H](O)[C@@H](O)C(Oc2ccc(CCNC(C)=O)c(-c3ccc4c(c3)OCO4)c2)OC1(C)C (stereo partly drawn) [11n, N-(2-(benzo[d][1,3]dioxol-5-yl)-4-(((3R,4S,5R)-3,4-dihydroxy-5-methoxy-6,6-dimethyltetrahydro-2H-pyran-2-yl)oxy)phenethyl)acetamide] |  | 18.4 ± 3.2 | 83 | 10 |  |  |  |  |
| CO[C@@H]1[C@@H](O)[C@@H](O)[C@H](Oc2ccc3cc(NC(C)=O)c(=O)oc3c2C)OC1(C)C [KU-32] |  |  |  |  | 240 ± 42.5 | ineffective | unable to reverse multiple clinical indices of DPN | restored normal sensory and motor nerve function |
